Data on four compounds can be found in patent publication EP2599767A1, “Phenylbutyl-derivatives” (Lunamed AG, priority 2011, dated 2013).

Structures are written as SMILES. Where two headings read alike, the source gives them in different places.

For data set [1], the system named is Jurkat cells. The data set can be described thus: Cell proliferation assay (dilution of fluorescent membrane marker, flow cytometry). The class given is cell-based. As to conditions: for IC50: Homo sapiens, Jurkat, 48 h; for anti-proliferative effect (in words): Jurkat cell line, 48 hours of treatment, without zVAD, Example 3: 30mM and 10mM. The procedure:
This study was performed using the following cell line on the two types of experiments performed: • Experiment 1: Study of the effects of compounds of Examples 3 and 4 according to the invention on apoptosis and cell proliferation: • o Jurkat: acute T cell leukemia • Experiment 2: Study of the caspase dependency of cell death induced by the compounds of Example 3 and 4 according to the invention. • o Jurkat: acute T cell leukemia This assay is based on the dilution rate of a fluorescent membrane marker which is a direct function of cell division. This probe is non toxic and allows the multiplexed detection of other parameters on the same cell population. The assay is performed by loading the cells with a fluorescent phospholipid analogue before plating. […] Subsequently, Flow cytometry analyzes the dilution rate of the fluorescent probe at the single cell level which is a direct readout of the number of cell divisions. All the conditions were performed in triplicate. Detection of cellular events was performed in triplicate in 96 well-plates after 48 hours of treatment by automated flow cytometry. Non-linear regressions and IC50 calculation were performed with GraphPad Prism 4.01 software. Briefly the time course of the experiments was the following: • o day 1 : seeding of cells in 96 well-plates. • o day 2 : treatment with compounds. • o day 4 : analysis at 48h-treatment. […] Effects of the two compounds of Examples 3 and 4 on apoptosis and cell proliferation in the Jurkat cell line: • The cells were labeled for subsequent cell proliferation measurements and plated in 96 well culture plates in standard culture conditions. • 24 hours after plating, the cells were treated with the two compounds of Examples 3 and 4. Experiment 2: […]
On the technique in general: A flow cytometer gives signals particle by particle.

Data set [2] is described as follows: Solubility in solvents (qualitative). As to conditions: solvents as named in the value. The class given is physicochemical.
The subject of data set [3] is Jurkat cells. The data set can be described thus: Apoptosis assay (active Caspase 3/7 by FAM-DEVD-FMK probe, flow cytometry). The class given is cell-based. As to conditions: Jurkat cell line; for caspase dependence: effects in presence of zVAD-FMK (in words): 100µM zVAD-FMK, Example 4 at 5mM; for pro-apoptotic effect (in words) / EC50: 48 hours of treatment; for pro-apoptotic effect (in words): Example 3: 30mM and 10mM; for EC50: Homo sapiens, pro-apoptotic effects. The method, then:
This study was performed using the following cell line on the two types of experiments performed: • Experiment 1: Study of the effects of compounds of Examples 3 and 4 according to the invention on apoptosis and cell proliferation: • o Jurkat: acute T cell leukemia • Experiment 2: Study of the caspase dependency of cell death induced by the compounds of Example 3 and 4 according to the invention. • o Jurkat: acute T cell leukemia Apoptosis was quantified at the single cell level by titrating active Caspase 3/7. This assay is based on the strong affinity of the FAM-DEVD-FMK peptide (carboxyfluorescein-labeled fluoromethyl ketone) for the catalytic site of the protease. When added to a cell culture, the FAM-DEVD-FMK probe enters cells and covalently binds to the large subunit of the active caspase 3/7. The bound labelled peptide remains within the cytosolic compartment, while the unbound peptides are drained off from the cell. The probe emits a green fluorescent signal which allows a direct measure of the amount of active caspase 3/7 present in the cell. All the conditions were performed in triplicate. Detection of cellular events was performed in triplicate in 96 well-plates after 48 hours of treatment by automated flow cytometry. Non-linear regressions and IC50 calculation were performed with GraphPad Prism 4.01 software. Briefly the time course of the experiments was the following: • o day 1 : seeding of cells in 96 well-plates. • o day 2 : treatment with compounds. • o day 4 : analysis at 48h-treatment. […] Effects of the two compounds of Examples 3 and 4 on apoptosis and cell proliferation in the Jurkat cell line: • The cells were labeled for subsequent cell proliferation measurements and plated in 96 well culture plates in standard culture conditions. • 24 hours after plating, the cells were treated with the two compounds of Examples 3 and 4. Experiment 2: […] zVad-FMK is a cell-permeant pan caspase inhibitor that irreversibly binds to the catalytic site of caspase proteases and can inhibit induction of apoptosis.

[4] abbreviates: without zVAD, read-out: EC50 (without zVAD).
Setting [5] is: +100µM zVAD, read-out: EC50 (+100µM zVAD).

`C[C@H](NC(=O)CCCc1ccccc1)C(=O)OCCOC(=O)[C@@H](C)NC(=O)CCCc1ccccc1` [Example 4]: in data set [1] (read-out: IC50 (without zVAD)), the IC50 (as a rule, the midpoint of a concentration-inhibition curve) came to 9000 µM. The “anti-proliferative effect (in words)” value in data set [1] is “concentration dependent anti-proliferative effect”. Moreover, the “solubility (in words)” value in data set [2] was “soluble in dichloromethane, ethyl acetate and acetonitrile”. In data set [3], the “caspase dependence: effects in presence of zVAD-FMK (in words)” value (shortened to “caspase dependence: effects in presence”) is listed as “no apoptosis was observed”. Further, the “pro-apoptotic effect (in words)” value in data set [3] (without zVAD) is on record as “able to induce apoptosis only at the highest concentration tested (5mM)”.

Turning to `CN[C@@H]1C[C@H]2O[C@@](C)([C@@H]1OC)n1c3ccccc3c3c4c(c5c6ccccc6n2c5c31)C(=O)NC4` [STS, Staurosporine, reference compound], the IC50 was 0.011 µM in data set [1] (read-out: IC50 (+100µM zVAD)) and 0.012 µM in data set [1] (read-out: IC50 (without zVAD)). The EC50 (commonly the concentration at which the effect is half-maximal) in data set [3] (setting [4]) stood at 2.3e-05 mM.

Take `O=C(O)CCCc1ccccc1` [Example 4-PB, 4-Phenylbutyric acid, reference compound]: the IC50 came to 2200 µM in data set [1] (read-out: IC50 (+100µM zVAD)) and 2600 µM in data set [1] (read-out: IC50 (without zVAD)). Moreover, the “anti-proliferative effect (in words)” value in data set [1] is given as “inhibit proliferation”. The EC50 in data set [3] (setting [5]) was 10 mM; in data set [3] (setting [4]), 3.2 mM. The “caspase dependence: effects in presence” value in data set [3] is “well inhibited by zVAD-FMK”. Besides, in data set [3] (without zVAD), the “pro-apoptotic effect (in words)” value was “able to elicit apoptosis”.

Regarding `CC(NC(=O)CCCc1ccccc1)C(=O)O` (centres unmarked) [Example 3, 2-(4-Phenyl-butyrylamino)-propionic acid], the IC50 is 4300 µM in data set [1] (read-out: IC50 (+100µM zVAD)) and 3200 µM in data set [1] (read-out: IC50 (without zVAD)). In data set [1], the “anti-proliferative effect (in words)” value is on record as “anti-proliferative effects”. The “solubility (in words)” value in data set [2] is “soluble in alcohols (ethanol and methanol) as well as in acetic acid”. Moreover, the figures for the EC50 in data set [3] (setting [5]) and in data set [3] (setting [4]) were 13 mM and 6.4 mM, respectively. In addition, the “caspase dependence: effects in presence” value in data set [3] is reported as “sensitive to 100µM zVAD-fmk”. Also, the “pro-apoptotic effect (in words)” value in data set [3] (without zVAD) is recorded as “pro-apoptotic”.
